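Tested at 5 concentrations; 48 h exposure; 96-well plates; endpoints linearly interpolated, else capped at highest concentration. GI50: concentration for 50% inhibition of growth.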 The source made the active and inactive calls. Cut-off read from the data, not from the text of the source: active = GI50 up to about 1.1 µM and inactive = higher.
Assays:
Assay in all cases: NCI-60 cell line screen, 48 h
[1] = system: DMS-273
[2] = system: M19-MEL
[3] = system: SNB-78
[4] = system: DLD-1
[5] = system: DMS-114
[6] = system: HOP-18
[7] = system: LXFL 529
[8] = system: RXF 631
[9] = system: XF498

Row | SMILES | GI50 [1] | GI50 [2] | GI50 [3] | GI50 [4] | GI50 [5] | GI50 [6] | GI50 [7] | GI50 [8] | GI50 [9]
1 | O=C(N/C(=C\c1ccc(/C=C(\NC(=O)c2ccccc2)c2nc3ccccc3s2)cc1)c1nc2ccccc2s1)c1ccccc1 | 3.71 µM (inactive) | 4.72 µM (inactive) | 20.8 µM (inactive) | 3.28 µM (inactive) | 11.4 µM (inactive) | 13.2 µM (inactive) | 2.98 µM (inactive) | 7.96 µM (inactive) | 
2 | Cc1nc2c(nc1C)C(=O)c1cc(O)ccc1C2=O | > 59 µM (inactive) | 8.13 µM (inactive) | > 100 µM (inactive) | > 51.3 µM (inactive) | 37.2 µM (inactive) | > 100 µM (inactive) | > 100 µM (inactive) |  | 
3 | Cc1c(C#N)c(=O)[nH]c(=O)n1CCN1CCN(C(=O)NCCCCCCNC(=O)N2CCN(CCn3c(C)c(C#N)c(=O)[nH]c3=O)CC2)CC1 | > 100 µM (inactive) | > 100 µM (inactive) | > 100 µM (inactive) | > 100 µM (inactive) | > 100 µM (inactive) | > 100 µM (inactive) | > 100 µM (inactive) |  | > 100 µM (inactive)
4 | N#Cc1cccc(C2C(=O)c3ccc(C(=O)c4ccc5c(c4)C(=O)N(c4ccc(Oc6ccc(N7C(=O)c8ccc(C(=O)c9ccc%10c(c9)C(=O)N(c9cccc(C#N)c9)C%10=O)cc8C7=O)cc6)cc4)C5=O)cc3C2=O)c1 (configuration not stated) | > 100 µM (inactive) | > 100 µM (inactive) |  | > 100 µM (inactive) | > 100 µM (inactive) |  | > 100 µM (inactive) | > 100 µM (inactive) | > 100 µM (inactive)
5 | CCCCNC(=S)Nn1c(-c2ccccc2)nc2ccccc2c1=O | > 100 µM (inactive) | 92.5 µM (inactive) |  | > 100 µM (inactive) | 87.3 µM (inactive) | > 100 µM (inactive) | > 100 µM (inactive) |  | 
6 | N[C@H](C(=O)O)[C@@H](Cl)CC(=O)O | > 100 µM (inactive) | > 100 µM (inactive) | > 100 µM (inactive) | > 100 µM (inactive) | > 100 µM (inactive) | > 100 µM (inactive) | > 100 µM (inactive) |  | > 100 µM (inactive)
7 | Cc1cc(C)c(S(=O)(=O)ONC(=O)OC(C)(C)C)c(C)c1 | > 100 µM (inactive) | > 100 µM (inactive) | > 100 µM (inactive) | > 100 µM (inactive) |  |  | > 100 µM (inactive) | > 100 µM (inactive) | > 100 µM (inactive)
8 | COc1cccc2c1CCc1ccccc1CC2=O | > 100 µM (inactive) | > 100 µM (inactive) |  | > 100 µM (inactive) | > 100 µM (inactive) | > 100 µM (inactive) | > 100 µM (inactive) |  | > 100 µM (inactive)
9 | Cc1ccc(NC(=O)/C(=N\NC(N)=S)C(C#N)c2ccccc2C)cc1C (configuration not stated) | > 100 µM (inactive) | > 100 µM (inactive) | > 100 µM (inactive) | > 100 µM (inactive) | > 100 µM (inactive) | > 100 µM (inactive) | > 100 µM (inactive) | > 100 µM (inactive) | > 100 µM (inactive)
10 | O=C1C=CC2(CCC23C=CC(=O)O3)O1 (configuration not stated) |  | > 100 µM (inactive) | > 100 µM (inactive) | > 100 µM (inactive) | > 100 µM (inactive) | > 100 µM (inactive) | 81.3 µM (inactive) | 71 µM (inactive) | > 100 µM (inactive)
11 | Nn1c(-c2ccccc2)nc2ccc(Br)cc2c1=O | 40.2 µM (inactive) | 89.5 µM (inactive) | 85.7 µM (inactive) | 35.3 µM (inactive) | 31.8 µM (inactive) | 17.5 µM (inactive) | 34 µM (inactive) | 59 µM (inactive) | 13.7 µM (inactive)
12 | C[Si](C)(C)/N=C1\N2C(=NC1(C(F)(F)F)C(F)(F)F)Sc1ccccc12 | > 50 µM (inactive) | > 50 µM (inactive) | > 50 µM (inactive) | > 50 µM (inactive) | > 50 µM (inactive) | > 50 µM (inactive) | > 50 µM (inactive) | > 50 µM (inactive) | > 50 µM (inactive)
13 | COC(=O)C1(C(=O)OC)CC(=O)c2cc3c(cc2-c2c(cc(OC)c(OC)c2OC)C1)OCO3 | 124 µM (inactive) | > 211 µM (inactive) |  | > 211 µM (inactive) |  | 0.0211 µM (active) | 137 µM (inactive) | > 211 µM (inactive) | 
14 | C[Si](C)(C)/C=C/CCC(C=O)(CCCl)c1ccccc1 (configuration not stated) | 19.4 µM (inactive) | 27.7 µM (inactive) | 23.8 µM (inactive) | 29.5 µM (inactive) | 19.5 µM (inactive) | 27.4 µM (inactive) | 30.1 µM (inactive) |  | 18.7 µM (inactive)
15 | O=C1C(Cl)C(c2cccc(O)c2)N1n1cnc2ccccc2c1=O (configuration not stated) | > 100 µM (inactive) | > 100 µM (inactive) | > 100 µM (inactive) | > 100 µM (inactive) | > 100 µM (inactive) | 39.9 µM (inactive) | > 100 µM (inactive) |  | > 100 µM (inactive)
16 | Cc1cccc(-c2nnc3s/c(=C\c4ccc(N(C)C)cc4)c(=O)n23)c1 | > 100 µM (inactive) | > 100 µM (inactive) | > 100 µM (inactive) | > 100 µM (inactive) |  | > 100 µM (inactive) | > 100 µM (inactive) |  | > 100 µM (inactive)
17 | O=C(Nc1ccc(F)cc1)C(=O)C(C1OC(=O)c2ccccc21)[N+](=O)[O-] (configuration not stated) |  | > 100 µM (inactive) | > 100 µM (inactive) | > 100 µM (inactive) | > 100 µM (inactive) |  | > 100 µM (inactive) |  | > 100 µM (inactive)
18 | CCCC(O)c1ccc2[nH]c3c(C)cc([N+](=O)[O-])c(C)c3c2c1 (configuration not stated) | 21.3 µM (inactive) | > 100 µM (inactive) | > 100 µM (inactive) | 54.1 µM (inactive) | > 100 µM (inactive) | > 100 µM (inactive) |  |  | > 100 µM (inactive)
19 | O=C(Oc1ccc2c(-c3ccccc3)c(C(=O)Nc3ccc(Cl)cc3)c(=O)oc2c1)c1ccccc1 | > 100 µM (inactive) | > 100 µM (inactive) |  | > 100 µM (inactive) | 65.3 µM (inactive) | > 100 µM (inactive) |  |  | 58.1 µM (inactive)
20 | COC1=CC(=O)[C@]2(C)[C@H](C1=O)C(C)[C@H]2c1ccc(OC)cc1 (some centres not stated) | > 100 µM (inactive) | > 100 µM (inactive) | > 100 µM (inactive) | > 100 µM (inactive) |  |  | > 100 µM (inactive) |  | > 100 µM (inactive)
21 | COc1cccc2c1C(=N)c1c(O)c3c(c(O)c1C2=O)C[C@@](O)(C(C)=O)C[C@@H]3OC1CC(N)C(O)C(C)O1 (some centres not stated) | 0.0766 µM (active) | 0.486 µM (active) | 2 µM (inactive) | 2.2 µM (inactive) | 0.148 µM (active) | 0.428 µM (active) | 0.542 µM (active) | 0.728 µM (active) | 0.202 µM (active)
22 | Nc1nc(O)c2[nH]nnc2n1 [8-AZAGUANINE] | 0.634 µM (active) |  | 1.02 µM (active) | 20 µM (inactive) | 6.5 µM (inactive) | 0.339 µM (active) | 16.3 µM (inactive) |  | 

Source: ChEMBL document CHEMBL1201862, “PubChem BioAssay data set” (2004)
